Experimental data as given in ChEMBL document CHEMBL3885861, “Open TG-GATES”.

Organism: Rattus norvegicus
Experiment: Open TG-GATES - Regimen: Single
Assay type: toxicity, organism-based, Sprague-Dawley
Set-up: regimen Single, gender Male, age 6 weeks
Settings: in vivo, po, 0 mg/kg, route gavage, dose level Control; for APTT / Bas / Eos / Fbg / Hb / Ht / Lym / MCHC / MCV / Mono / Neu / PT / Plat / RBC / Ret / WBC: tissue Blood; for KIDNEY_L / KIDNEY_R / KIDNEY_TOTAL: tissue Kidney; for LIVER: tissue Liver; for ALP / ALT / AST / BUN / CRE / DBIL / GLC / IP / K / LDH / Na / PL / RALB / TBIL / TC / TG / TP / gamma-GTP: tissue Plasma

C#C[C@]1(O)CC[C@H]2[C@@H]3CCC4=Cc5oncc5C[C@]4(C)[C@H]3CC[C@@]21C [DANAZOL]
TERMINAL_BW (3 h): 212.9 g
APTT (3 h): 23 s
Bas (3 h): 0%
Eos (3 h): 1%
Fbg (3 h): 292.6 mg/dL
Hb (3 h): 13.2 g/dL
Ht (3 h): 40%
Lym (3 h): 77.2%
MCHC (3 h): 33.1%
MCV (3 h): 62.5 fL
Mono (3 h): 2.4%
Neu (3 h): 19.6%
PT (3 h): 15.8 s
Plat (3 h): 111.7 x10_4/uL
RBC (3 h): 641.4 x10_4/ul
Ret (3 h): 7%
WBC (3 h): 76.3 x10_2/uL
KIDNEY_L (3 h): 0.9 g
KIDNEY_R (3 h): 0.9 g
KIDNEY_TOTAL (3 h): 1.9 g
LIVER (3 h): 10.1 g
ALP (3 h): 1527.4 IU/L
ALT (3 h): 41.8 IU/L
AST (3 h): 78.2 IU/L
BUN (3 h): 14.2 mg/dL
CRE (3 h): 0.1 mg/dL
DBIL (3 h): 0 mg/dL
GLC (3 h): 187.6 mg/dL
IP (3 h): 7.9 mg/dL
K (3 h): 4.1 meq/L
LDH (3 h): 204.4 IU/L
Na (3 h): 142.8 meq/L
PL (3 h): 131.8 mg/dL
RALB (3 h): 3 g/dL
TBIL (3 h): 0.01 mg/dL
TC (3 h): 76.8 mg/dL
TG (3 h): 70.8 mg/dL
TP (3 h): 5.5 g/dL
gamma-GTP (3 h): 2 IU/L
TERMINAL_BW (6 h): 212.9 g
APTT (6 h): 23.5 s
Bas (6 h): 0%
Eos (6 h): 1%
Fbg (6 h): 300.6 mg/dL
Hb (6 h): 13.1 g/dL
Ht (6 h): 39.8%
Lym (6 h): 81.2%
MCHC (6 h): 32.8%
MCV (6 h): 63 fL
Mono (6 h): 2.2%
Neu (6 h): 14.8%
PT (6 h): 16.1 s
Plat (6 h): 114.9 x10_4/uL
RBC (6 h): 632 x10_4/ul
Ret (6 h): 7.2%
WBC (6 h): 105 x10_2/uL
KIDNEY_L (6 h): 0.9 g
KIDNEY_R (6 h): 1 g
KIDNEY_TOTAL (6 h): 1.9 g
LIVER (6 h): 9.1 g
ALP (6 h): 1276.8 IU/L
ALT (6 h): 39.4 IU/L
AST (6 h): 73.4 IU/L
BUN (6 h): 9.2 mg/dL
CRE (6 h): 0.1 mg/dL
DBIL (6 h): 0 mg/dL
GLC (6 h): 182 mg/dL
IP (6 h): 9 mg/dL
K (6 h): 4.3 meq/L
LDH (6 h): 168.6 IU/L
Na (6 h): 141 meq/L
PL (6 h): 118.2 mg/dL
RALB (6 h): 3 g/dL
TBIL (6 h): 0.02 mg/dL
TC (6 h): 65.4 mg/dL
TG (6 h): 49.4 mg/dL
TP (6 h): 5.3 g/dL
gamma-GTP (6 h): 1.4 IU/L
TERMINAL_BW (9 h): 209.9 g
APTT (9 h): 22.7 s
Bas (9 h): 0%
Eos (9 h): 0.2%
Fbg (9 h): 295.4 mg/dL
Hb (9 h): 13.3 g/dL
Ht (9 h): 40.9%
Lym (9 h): 83%
MCHC (9 h): 32.5%
MCV (9 h): 64 fL
Mono (9 h): 2%
Neu (9 h): 13.6%
PT (9 h): 16.3 s
Plat (9 h): 114.3 x10_4/uL
RBC (9 h): 639.2 x10_4/ul
Ret (9 h): 7.6%
WBC (9 h): 87.3 x10_2/uL
KIDNEY_L (9 h): 1 g
KIDNEY_R (9 h): 1 g
KIDNEY_TOTAL (9 h): 2 g
LIVER (9 h): 9.1 g
ALP (9 h): 1266 IU/L
ALT (9 h): 33.2 IU/L
AST (9 h): 63.6 IU/L
BUN (9 h): 11.2 mg/dL
CRE (9 h): 0.1 mg/dL
DBIL (9 h): 0 mg/dL
GLC (9 h): 199.8 mg/dL
IP (9 h): 10.1 mg/dL
K (9 h): 4.2 meq/L
LDH (9 h): 144.2 IU/L
Na (9 h): 141.8 meq/L
PL (9 h): 124 mg/dL
RALB (9 h): 2.9 g/dL
TBIL (9 h): 0.016 mg/dL
TC (9 h): 69.8 mg/dL
TG (9 h): 54.8 mg/dL
TP (9 h): 5.4 g/dL
gamma-GTP (9 h): 1.2 IU/L
TERMINAL_BW (24 h): 231.9 g
APTT (24 h): 23.6 s
Bas (24 h): 0%
Eos (24 h): 0.8%
Fbg (24 h): 281 mg/dL
Hb (24 h): 13.3 g/dL
Ht (24 h): 40.2%
Lym (24 h): 81.4%
MCHC (24 h): 32.9%
MCV (24 h): 63.2 fL
Mono (24 h): 2.2%
Neu (24 h): 14.8%
PT (24 h): 15.7 s
Plat (24 h): 114.7 x10_4/uL
RBC (24 h): 637.4 x10_4/ul
Ret (24 h): 7.3%
WBC (24 h): 102.5 x10_2/uL
KIDNEY_L (24 h): 1 g
KIDNEY_R (24 h): 1 g
KIDNEY_TOTAL (24 h): 2.1 g
LIVER (24 h): 11.3 g
ALP (24 h): 1604 IU/L
ALT (24 h): 48.2 IU/L
AST (24 h): 74.8 IU/L
BUN (24 h): 18.6 mg/dL
CRE (24 h): 0.1 mg/dL
DBIL (24 h): 0 mg/dL
GLC (24 h): 197.8 mg/dL
IP (24 h): 7.8 mg/dL
K (24 h): 4.2 meq/L
LDH (24 h): 173.8 IU/L
Na (24 h): 142.2 meq/L
PL (24 h): 140 mg/dL
RALB (24 h): 3 g/dL
TBIL (24 h): 0.006 mg/dL
TC (24 h): 74.6 mg/dL
TG (24 h): 93 mg/dL
TP (24 h): 5.5 g/dL
